From patent US20250214932A1, “T-TYPE CALCIUM CHANNEL MODULATORS COMPRISING AN AZASPIRONONANE CORE AND METHODS OF USE THEREOF” (Praxis Precision Medicines, Inc., priority 2022, published 2025)
pIC50: −log10 of the molar value.

Each molecule was assayed against Human Cav3.1 (Homo sapiens (Human), UniProt O43497) (assay: Human Cav3.1 calcium channel patch clamp assay (SyncroPatch 384PE, HEK-293 natClytin/TASK1+Cav3.1 cell line)). Settings: patch clamp, HEK-293 natClytin/TASK1+Cav3.1 cells; class symbols; read-out: Human Cav3.1 IC50.
Type: cell-based
Procedure: Pulse generation and data collection were performed with PatchController384 V1.3.0 and DataController384 V1.2.1 (Nanion Technologies). Off-line analysis was performed using Excel and Graphpad Prism (V 8.4.2) with complete data files uploaded to Dotmatics. The access resistance and apparent membrane capacitance were estimated using built-in protocols. Current was recorded in whole cell configuration from a population of cells. The cells were lifted, triturated, and resuspended at 800,000 cells/ml. The cells were allowed to recover in the cell hotel prior to experimentation. Currents were recorded at room temperature. The external solution contained the following (in mM): NaCl 80, NMDG 60, KCl 4, MgCl2 1, CaCl2 6, glucose 5 and HEPES 10 (pH=7.4, Osmolarity ˜300 mOsm). The extracellular solution was used as the wash, reference and compound delivery solution. […] The compound plate was created at 2× concentrated in the extracellular solution. The compound was diluted to 1:2 when added to the recording well. The amount of DMSO in the extracellular solution was held constant at the level used for the highest tested concentration. For the voltage clamp experiments on Cav3.1, data were sampled at 10 KHz. After establishment of the seal and the passage in the whole cell configuration, the cells were held at −120 mV. Cav3.1 current was evoked using a 100 ms step to −20 mV (to measure resting state block), followed by a 1600 ms step to −65 mV and a second 100 ms step to −20 mV (to measure voltage dependent block). The voltage protocol was applied every 15 seconds in the absence and in the presence of the compounds under investigation. […] Current amplitude (pA) was measured in the peak 1 and 2. The average of last 3 sweeps of each liquid period (vehicle, compound under investigation, full block) was calculated. Nickel-sensitive current was used to calculate the % of inhibition in the presence of the compound under investigation.
Pulse generation and data collection were performed with PatchController384 V1.3.0 and DataController384 V1.2.1 (Nanion Technologies). Off-line analysis was performed using Excel and Graphpad Prism (V 8.4.2) with complete data files uploaded to Dotmatics. The access resistance and apparent membrane capacitance were estimated using built-in protocols. Current was recorded in whole cell configuration from a population of cells.
The cells were lifted, triturated, and resuspended at 800,000 cells/ml. The cells were allowed to recover in the cell hotel prior to experimentation. Currents were recorded at room temperature. The external solution contained the following (in mM): NaCl 80, NMDG 60, KCl 4, MgCl2 1, CaCl2 6, glucose 5 and HEPES 10 (pH=7.4, Osmolarity ˜300 mOsm). The extracellular solution was used as the wash, reference and compound delivery solution.
The compound plate was created at 2× concentrated in the extracellular solution. The compound was diluted to 1:2 when added to the recording well. The amount of DMSO in the extracellular solution was held constant at the level used for the highest tested concentration. For the voltage clamp experiments on Cav3.1, data were sampled at 10 KHz. After establishment of the seal and the passage in the whole cell configuration, the cells were held at −120 mV. Cav3.1 current was evoked using a 100 ms step to −20 mV (to measure resting state block), followed by a 1600 ms step to −65 mV and a second 100 ms step to −20 mV (to measure voltage dependent block). The voltage protocol was applied every 15 seconds in the absence and in the presence of the compounds under investigation. […] Current amplitude (pA) was measured in the peak 1 and 2. The average of last 3 sweeps of each liquid period (vehicle, compound under investigation, full block) was calculated. Nickel-sensitive current was used to calculate the % of inhibition in the presence of the compound under investigation.

Human Cav3.1, sequence (O43497 whole entry): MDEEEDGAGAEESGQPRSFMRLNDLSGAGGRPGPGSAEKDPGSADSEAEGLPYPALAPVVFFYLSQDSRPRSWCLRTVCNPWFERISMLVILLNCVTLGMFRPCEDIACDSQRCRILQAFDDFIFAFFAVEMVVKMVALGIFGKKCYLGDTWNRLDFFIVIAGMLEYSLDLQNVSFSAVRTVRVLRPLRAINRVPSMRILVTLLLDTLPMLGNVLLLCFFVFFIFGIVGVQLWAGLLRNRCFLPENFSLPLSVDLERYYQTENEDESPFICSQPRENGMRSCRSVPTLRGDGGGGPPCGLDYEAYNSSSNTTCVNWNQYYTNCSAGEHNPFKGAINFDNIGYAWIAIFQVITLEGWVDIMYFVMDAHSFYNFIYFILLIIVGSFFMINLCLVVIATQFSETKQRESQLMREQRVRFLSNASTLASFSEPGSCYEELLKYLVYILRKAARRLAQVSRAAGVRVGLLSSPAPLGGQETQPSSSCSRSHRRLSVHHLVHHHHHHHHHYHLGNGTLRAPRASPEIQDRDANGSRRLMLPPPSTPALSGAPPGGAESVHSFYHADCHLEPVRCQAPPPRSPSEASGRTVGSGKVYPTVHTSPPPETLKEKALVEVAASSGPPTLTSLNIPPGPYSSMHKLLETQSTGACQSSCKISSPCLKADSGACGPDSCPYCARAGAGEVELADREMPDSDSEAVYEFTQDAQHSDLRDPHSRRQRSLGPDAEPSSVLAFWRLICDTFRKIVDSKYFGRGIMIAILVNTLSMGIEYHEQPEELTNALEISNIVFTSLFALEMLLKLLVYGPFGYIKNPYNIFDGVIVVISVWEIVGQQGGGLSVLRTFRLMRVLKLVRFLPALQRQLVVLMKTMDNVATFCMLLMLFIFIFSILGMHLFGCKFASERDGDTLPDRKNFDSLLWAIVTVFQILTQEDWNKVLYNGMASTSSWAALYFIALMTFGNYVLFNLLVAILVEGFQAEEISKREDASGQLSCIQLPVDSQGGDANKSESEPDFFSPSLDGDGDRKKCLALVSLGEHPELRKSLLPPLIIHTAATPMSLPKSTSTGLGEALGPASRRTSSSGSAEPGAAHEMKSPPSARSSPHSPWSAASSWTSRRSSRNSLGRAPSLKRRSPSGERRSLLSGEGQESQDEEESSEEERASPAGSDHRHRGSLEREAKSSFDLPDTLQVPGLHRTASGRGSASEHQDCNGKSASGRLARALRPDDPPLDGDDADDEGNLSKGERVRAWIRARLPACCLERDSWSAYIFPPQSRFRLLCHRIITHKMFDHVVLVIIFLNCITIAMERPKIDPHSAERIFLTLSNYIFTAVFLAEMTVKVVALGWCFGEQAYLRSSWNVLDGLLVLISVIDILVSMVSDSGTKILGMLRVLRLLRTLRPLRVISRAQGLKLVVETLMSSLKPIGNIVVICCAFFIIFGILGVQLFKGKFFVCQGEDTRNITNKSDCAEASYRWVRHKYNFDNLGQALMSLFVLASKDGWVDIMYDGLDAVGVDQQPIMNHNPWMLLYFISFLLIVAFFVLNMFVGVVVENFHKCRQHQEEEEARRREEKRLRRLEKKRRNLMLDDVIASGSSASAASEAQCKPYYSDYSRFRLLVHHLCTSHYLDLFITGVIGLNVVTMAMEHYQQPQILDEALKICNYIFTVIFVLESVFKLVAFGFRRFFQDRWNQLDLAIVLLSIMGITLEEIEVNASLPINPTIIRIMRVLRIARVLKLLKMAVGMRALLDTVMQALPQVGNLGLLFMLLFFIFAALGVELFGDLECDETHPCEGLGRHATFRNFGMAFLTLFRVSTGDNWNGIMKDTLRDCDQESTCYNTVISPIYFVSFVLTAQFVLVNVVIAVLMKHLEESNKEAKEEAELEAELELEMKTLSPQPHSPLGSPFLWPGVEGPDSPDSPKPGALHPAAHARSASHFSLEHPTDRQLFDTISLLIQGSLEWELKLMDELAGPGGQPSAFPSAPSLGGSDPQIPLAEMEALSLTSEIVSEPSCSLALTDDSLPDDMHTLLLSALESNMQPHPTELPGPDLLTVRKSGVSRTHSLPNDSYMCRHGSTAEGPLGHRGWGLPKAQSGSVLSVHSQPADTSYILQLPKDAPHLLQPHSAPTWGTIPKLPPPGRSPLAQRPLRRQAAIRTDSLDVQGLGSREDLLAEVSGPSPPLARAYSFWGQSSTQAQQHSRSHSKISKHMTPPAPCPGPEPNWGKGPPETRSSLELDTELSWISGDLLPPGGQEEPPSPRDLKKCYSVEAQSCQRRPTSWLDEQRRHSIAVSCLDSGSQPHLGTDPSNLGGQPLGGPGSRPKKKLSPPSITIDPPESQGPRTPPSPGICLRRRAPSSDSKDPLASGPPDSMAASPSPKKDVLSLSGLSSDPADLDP

SMILES	pIC50
CC(C)(C)NC(=O)CN1CC2(CCC(C(=O)NC34CCC(CC3)CC4)CC2)C1 [Example 8]	> 6.00
Cc1cc(NC(=O)C2CCC3(CC2)CN(CC(=O)NC(C)(C)C)C3)nn1-c1ccccc1 [Example 6]	5.00 to 6.00
CC(C)(C)CCN1CC2(CCC(C(=O)Nc3cc(F)cc(Cl)c3)CC2)C1 [Example 22]	> 6.00

Continued, values first:

pIC50	SMILES
> 6.00	CCC(C)(C)N(C)C(=O)CN1CC2(CCC(C(=O)Nc3cc(F)cc(C(F)F)c3)CC2)C1 [Example 34]
> 6.00	CC(C)(C)NC(=O)CN1CC2(CCC(C(=O)Nc3cc(F)cc(Cl)c3)CC2)C1 [Example 25]
> 6.00	CC1(NC(=O)CN2CC3(CCC(C(=O)Nc4cc(F)cc(C(F)F)c4)CC3)C2)CCC1 [Example 29]
> 6.00	CC(C)(C)NC(=O)CN1CC2(CCC(C(=O)Nc3cc(F)cc(C(F)F)c3)CC2)C1 [Example 9]

Same assay, conditions: voltage dependent block (VDB); read-out: Cav3.1 (VDB) IC50

SMILES	pIC50
COc1cccc(NC(=O)C2CCC3(CC2)CN(CC(=O)NC(C)(C)C)C3)c1 [Example 75]	5.97
CC(C)(C)C(O)CN1CC2(CCC(C(=O)NC34CC5CC(CC(C5)C3)C4)CC2)C1 (stereo not drawn) [Example 152]	6.23
Cc1cc(Cl)cc(NC(=O)C2CCC3(CC2)CN(CC2(C#N)CC2)C3)c1 [Example 136]	6.00
N#CC1(CN2CC3(CCC(C(=O)Nc4cc(F)cc(C(F)F)c4)CC3)C2)CCC(F)(F)CC1 [Example 99]	6.27
CC(C)(C)NC(=O)CN1CC2(CCC(C(=O)NC34CCC(CC3)CC4)CC2)C1 [Example 8]	6.18
O=C(Nc1cc(F)cc(C(F)F)c1)C1CCC2(CC1)CN(CC(=O)N1CCOCC1)C2 [Example 41]	6.07
Cc1cccc(NC(=O)C2CCC3(CC2)CN(CC(=O)NC2(C(F)(F)F)CC2)C3)c1 [Example 116]	6.16
O=C(Nc1cc(F)cc(C(F)F)c1)C1CCC2(CC1)CN(CC(=O)N1CCOCC13CC3)C2 [Example 42]	6.15
O=C(Nc1cc(F)cc(Cl)c1)C1CCC2(CC1)CN(CCS(=O)(=O)c1ccccc1)C2 [Example 91]	6.24
O=C(CN1CC2(CCC(C(=O)Nc3ccc(Cl)c(F)c3)CC2)C1)NC1(C(F)(F)F)CC1 [Example 120]	5.97
N#CC1(CN2CC3(CCC(C(=O)Nc4cc(F)cc(Cl)c4)CC3)C2)CC1 [Example 118]	6.28
Cc1cc(NC(=O)C2CCC3(CC2)CN(CC(=O)NC(C)(C)C)C3)nn1-c1ccccc1 [Example 6]	5.64
O=C(CN1CC2(CCC(C(=O)Nc3cccc(OC(F)F)c3)CC2)C1)NC1(C(F)(F)F)CC1 [Example 108]	6.44
CC(C)(C)NC(=O)CN1CC2(CCC(C(=O)Nc3cccc(C(F)F)c3)CC2)C1 [Example 62]	6.29
N#CC1(CN2CC3(CCC(C(=O)Nc4cc(F)cc(Cl)c4)CC3)C2)CCC(F)(F)CC1 [Example 107]	6.37
CC1(OC(=O)CN2CC3(CCC(C(=O)Nc4cc(F)cc(Cl)c4)CC3)C2)CC1 [Example 64]	6.21
O=C(CN1CC2(CCC(C(=O)Nc3ccc(F)c(C(F)(F)F)c3)CC2)C1)NC1(C(F)(F)F)CC1 [Example 126]	6.14
CN(C(=O)CN1CC2(CCC(C(=O)Nc3cc(F)cc(C(F)F)c3)CC2)C1)C1(C)CCC1 [Example 40]	6.47
O=C(CN1CC2(CCC(CNC(=O)c3cc(F)cc(Cl)c3)CC2)C1)NC1(C(F)(F)F)CC1 [Example 143]	6.43

Next, values leading:

pIC50	SMILES
6.48	O=C(Nc1cc(F)cc(Cl)c1)C1CCC2(CC1)CN(CC1(F)CCC(F)(F)CC1)C2 [Example 73]
6.52	CC1(CCN2CC3(CCC(C(=O)Nc4cc(F)cc(C(F)F)c4)CC3)C2)CCC1 [Example 43]
6.52	COc1cc(NC(=O)C2CCC3(CC2)CN(CC(=O)NC(C)(C)C)C3)ccc1F [Example 156]
6.55	O=C(CN1CC2(CCC(C(=O)Nc3cc(F)cc(Cl)c3)CC2)C1)NC1(C(F)F)CC1 [Example 140]
6.60	CC(C)(C)CCN1CC2(CCC(C(=O)Nc3cc(F)cc(Cl)c3)CC2)C1 [Example 161]
6.70	CCC(C)(C)N(C)C(=O)CN1CC2(CCC(C(=O)Nc3cc(F)cc(C(F)F)c3)CC2)C1 [Example 34]
6.76	CC(C)(C)NC(=O)CN1CC2(CCC(C(=O)Nc3cc(F)cc(Cl)c3)CC2)C1 [Example 25]
6.83	O=C(CN1CC2(CCC(C(=O)Nc3ccc(F)c(OC(F)F)c3)CC2)C1)NC1(C(F)(F)F)CC1 [Example 124]
6.99	CC1(NC(=O)CN2CC3(CCC(C(=O)Nc4cc(F)cc(C(F)F)c4)CC3)C2)CCC1 [Example 29]
7.11	CC(C)(C)NC(=O)CN1CC2(CCC(C(=O)Nc3cc(F)cc(C(F)F)c3)CC2)C1 [Example 9]
